Measurements reported in patent US9458161B1, “TSPO ligands for cancer imaging and treatment” (Vanderbilt University, priority 2011, dated 2016).
Like-named read-outs stand apart in the source and are kept apart here.

Key:
TSPO [1] = molecular target: T1, TSPO (Homo sapiens, UniProt P30536); conditions: cited from earlier work
TSPO [2] = molecular target: T1, TSPO; set-up: host or cells: glioma patients (Junck et al; Pappata et al.); conditions: cited from earlier work
[3] = HPLC radiometabolite analysis of plasma after [18F]DPA-714; type: in vivo, rat; conditions: mean ± SD
Procedure: Briefly, arterial blood (200 μL) was collected at 2, 12, 30, 60, and 90 min. Following centrifugation, plasma was extracted with acetonitrile:water (340 μL, 7:1, v/v). The mixture was centrifuged and the supernatant used for reversed phase HPLC analysis using 0.1 M aqueous ammonium acetate (NH4)OAc (pH 10) and acetonitrile (30:70; v/v) at 1 mL/min on a C18 Dynamax 250×4.6 mm (Varian) column. Radiochromatographic data were recorded and collected using a radioisotope detector (Bioscan), decay-corrected to time zero of each radiochromatogram, and smoothed using a locally weighted scatter plot smoothing method. The plasma time-activity curve was corrected according to the fraction of unchanged radioligand.

TSPO [4] = molecular target: TSPO (Rattus norvegicus, UniProt P16257); conditions: for K1/k2: 3-compartment, 4-parameter model; for K1/k2 / k3 / VT: mean ± S.E.; for K1/k2 / k3: N=3; for VT: N=4
Procedure: In this Example Glioma-bearing rats were imaged with [^18F]PBR06 in a microPET system. Dynamic acquisitions were acquired simultaneously upon injection of 70-100 MBq/0.2 mL [^18F]PBR06. Over the course of scanning, arterial blood was collected to derive the input function, with HPLC radiometabolite analysis performed on selected samples for arterial input function correction. Compartmental modeling of the PET data was performed using the corrected arterial input function. Specific tumor cell binding of PBR06 was evaluated by radioligand displacement of [^3H]PK 11195 with PBR06 in vitro and by displacement of [^18F]PBR06 with excess PBR06 in vivo. Immediately following imaging, tumor tissue and adjacent healthy brain were harvested for assay of TSPO protein levels by western blotting and immunohistochemistry.
PET/CT imaging was performed within 24 h of MR imaging in rats with confirmed tumors. Tumor-bearing rats were administered ˜70-100 MBq/0.2 mL [^18F]PBR06 via a jugular catheter while in a microPET Focus 220 (Siemens Preclinical Solutions, Knoxville, Tenn., USA). Dynamic images (90 min) were collected, followed by CT (microCAT II, Siemens Preclinical Solutions) for attenuation correction. For displacement studies, cold PBR06 (10 mg/kg) was injected via jugular catheter 30 min after radiotracer administration.
The dynamic PET acquisition was divided into twelve, five-second frames for the first minute, followed by 89 sixty-second frames for the duration of the scan. Data from all possible lines of response (LOR) were saved in the list mode raw data format. The raw data was then binned into 3D sinograms with a span of 3 and ring difference of 47. The images were reconstructed into transaxial slices (128×128×95) with voxel sizes of 0.095×0.095×0.08 cm^3, after applying scatter and attenuation corrections, using an iterative ordered subsets expectation maximization (OS-EM 2D) algorithm with 16 subsets and 4 iterations. Attenuation correction was accomplished by generating an attenuation map (sinogram) from the CT image. The CT image was first co-registered with the microPET image, segmented into air, soft tissue, and bone, and then projected into sinograms with a span of 47 and ring difference of 23.
Immediately following administration of [^18F]PBR06, arterial blood samples (50 μL) were collected at 10 s intervals during the first minute of scanning, followed by collection at 90 s and 2, 8, 12, 20, 30, 45, 60, 75, and 90 min. Plasma radioactivity was measured by first centrifuging blood samples (50 μL) at 14,000 rpm for 5 min in a microcentrifuge. Next, plasma (15 μL) was removed and measured in a NaI well counter (Capintec, Ramsey, N.J., USA).
Time-activity curves (TACs) were generated by manually segmenting three-dimensional volumes of interest over tumor and contralateral brain using ASIPro (Siemens Preclinical Solutions), avoiding areas of central necrosis if present. The arterial input function (AIF) was computed from plasma sampling during imaging and corrected for metabolism of the parent ligand. A 3-compartment, 4-rate constant kinetic model was used to characterize [^18F]PBR06 pharmacokinetics as previously described. Using the COMKAT software package, model parameters were estimated for constants for influx (K1) and efflux (k2) rates of radioligand diffusion between plasma and tissue compartments, and exchange between specific (k3) and non-specific binding (k4) compartments. Modeling was carried out for whole brain (excluding tumor) and tumor, individually, by fitting TACs of each region.
To evaluate the in vivo TSPO specificity of [^18F]PBR06, we carried out displacement studies in C6-bearing rats using the cold analog, PBR06.

[5] = HPLC radiometabolite analysis of plasma after [18F]PBR06; type: in vivo, rat
Procedure: Blood samples (200 μL) were collected (2, 25, 45 min) for radiometabolite analysis. Following centrifugation, plasma was extracted with acetonitrile:water (340 μL, 7.5:1, v/v). The mixture was centrifuged and the supernatant used for HPLC analysis. Radioanalysis was conducted as is known in the art. Radiochromatographic data were recorded and collected using a radioisotope detector (Bioscan, Washington, D.C., USA), decay-corrected to time zero of each radiochromatogram, and smoothed using a locally weighted scatter plot smoothing (LOWESS) method. The plasma time-activity curve (TAC) was corrected with the fraction of unchanged radioligand.
Arterial blood samples were collected to assay [^18F]PBR06 radiometabolites for correction of the AIF. FIG. 12 illustrates a typical activity corrected reversed-phase HPLC trace of a blood sample collected two minutes following injection of [^18F]PBR06. At this time point we noted the presence of both ^18F^− (retention time 2.8 min) and the parent ligand (10.1 min) in a respective ratio of ˜1:3.

[6] = at 45 minutes, after infusion of PBR06 at 30 minutes

T1 sequence (P30536 whole entry): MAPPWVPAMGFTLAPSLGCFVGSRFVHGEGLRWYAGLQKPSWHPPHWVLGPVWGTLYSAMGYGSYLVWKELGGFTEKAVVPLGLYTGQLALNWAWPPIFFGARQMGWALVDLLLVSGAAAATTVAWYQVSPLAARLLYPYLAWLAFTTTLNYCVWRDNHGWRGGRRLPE

Compound: CCC(C)N(C)C(=O)c1cc2ccccc2c(-c2ccccc2Cl)n1 (stereo not shown) [PK 11195]
- in vitro affinity (in words) (TSPO [1]): in vitro affinity in the low nanomolar range

Compound: CN1C(=O)CN=C(c2ccc(Cl)cc2)c2cc(Cl)ccc21 [Ro5-4864]
- in vitro affinity (in words) (TSPO [1]): in vitro affinity in the low nanomolar range

Compound: CC[C@@H](C)N([11CH3])C(=O)c1cc2ccccc2c(-c2ccccc2Cl)n1 [[^11C]PK 11195]
- displaceable fraction of tracer with nonradioactive ligand (TSPO [2]; glioma patient (Pappata et al.)): less than 30%
- patients with significantly elevated uptake in gliomas vs contralateral normal brain (TSPO [2]; human gliomas (Junck et al.)): 8/10
- tumor/gray matter ratio (TSPO [2]; human gliomas, in 3/10 patients (Junck et al.)): ~2

Compound: [11CH3]N1C(=O)CN=C(c2ccc(Cl)cc2)c2cc(Cl)ccc21 [[^11C]Ro5-4864]
- radioactivity in tumor tissue vs normal brain (in words) (TSPO [2]; human gliomas, PET (Junck et al.)): failed to demonstrate higher levels of radioactivity in tumor tissue than in normal brain

Compound: CCN(CC)C(=O)Cc1c(-c2ccc(OCC[18F])cc2)nn2c(C)cc(C)nc12 [[^18F]DPA-714]
- % 18F- in plasma ([3]; P.I. time 2 (N=7)): 2 ± 3.3%
- % Metabolite (hydrophilic radiometabolite) in plasma ([3]; P.I. time 2 (N=7)): 3 ± 3.7%
- % 18F- in plasma ([3]; P.I. time 12 (N=7)): 13 ± 6.7%
- % Metabolite (hydrophilic radiometabolite) in plasma ([3]; P.I. time 12 (N=7)): 19 ± 5.8%
- % [18F]DPA-714 (parent) in plasma ([3]; P.I. time 12 (N=7)): 68 ± 7.4%
- % 18F- in plasma ([3]; P.I. time 30 (N=7)): 37 ± 5.4%
- % Metabolite (hydrophilic radiometabolite) in plasma ([3]; P.I. time 30 (N=7)): 19 ± 8.8%
- % [18F]DPA-714 (parent) in plasma ([3]; P.I. time 30 (N=7)): 44 ± 8.9%
- % 18F- in plasma ([3]; P.I. time 60 (N=7)): 50 ± 15.0%
- % Metabolite (hydrophilic radiometabolite) in plasma ([3]; P.I. time 60 (N=7)): 23 ± 7.3%
- % [18F]DPA-714 (parent) in plasma ([3]; P.I. time 60 (N=7)): 27 ± 6.2%
- % 18F- in plasma ([3]; P.I. time 90 (N=5)): 64 ± 12.1%
- % Metabolite (hydrophilic radiometabolite) in plasma ([3]; P.I. time 90 (N=5)): 14 ± 3.8%
- % [18F]DPA-714 (parent) in plasma ([3]; P.I. time 90 (N=5)): 22 ± 17.8%

Compound: COc1ccc(OC)c(CN(C(=O)C[18F])c2ccccc2Oc2ccccc2)c1 [[^18F]PBR06]
- tracer distribution tumor vs contralateral brain (in words) (TSPO [4]; C6 glioma-bearing rats): preferentially accumulate in tumors with modest uptake in contralateral brain
- tumor activity after PBR06 infusion, % of maximum/peak tumor uptake (TSPO [4]; PBR06 10 mg/kg i.v. 30 min after tracer): approximately 25%
- K1/k2 (TSPO [4]; brain): 6.164 ± 2.049 mL/g
- k3 (TSPO [4]; brain): 0.0714 ± 0.0261 min⁻¹
- VT (TSPO [4]; brain): 13.07 ± 3.901 mL/g
- k4 (TSPO [4]; brain, mean, N=3 (S.E. in next line)): 0.00945 min⁻¹
- displaceable [18F]PBR06 binding (TSPO [4]; infusion of PBR06 10 mg/kg 30 min after tracer, tumor): approximately 75%
- total radioactivity in tumor relative to normal brain (TSPO [4]; last 20 minutes of the PET scan): approximately three- to four-fold higher than normal brain
- K1/k2 (TSPO [4]; tumor): 5.947 ± 1.982 mL/g
- k3 (TSPO [4]; tumor): 0.3870 ± 0.1592 min⁻¹
- VT (TSPO [4]; tumor): 63.90 ± 3.400 mL/g
- free 18F− in plasma ([5]; at 2 minutes after injection): 25%
- parent ligand [18F]PBR06 in plasma ([5]; at 2 minutes after injection): 75%
- free 18F− in plasma ([5]; at 30 minutes): 62%
- parent ligand [18F]PBR06 in plasma ([5]; at 30 minutes): 38%
- 18F− in plasma [5, 6]: 43%
- fraction of [18F]PBR06 in plasma [5, 6]: 57%
